Data published in US20140127202A1, “ANTITUMOUR COMBINATIONS CONTAINING A VEGF INHIBITING AGENT AND IRINOTECAN” (Aventis Pharma S.A., priority 2007, published 2014).

What was measured:
[1] = biological target: T1, VEGF-A (Homo sapiens, UniProt P15692); details: in comparison with Avastin (bevacizumab); cited from earlier work
T1 sequence (P15692 207-395 limits assumed): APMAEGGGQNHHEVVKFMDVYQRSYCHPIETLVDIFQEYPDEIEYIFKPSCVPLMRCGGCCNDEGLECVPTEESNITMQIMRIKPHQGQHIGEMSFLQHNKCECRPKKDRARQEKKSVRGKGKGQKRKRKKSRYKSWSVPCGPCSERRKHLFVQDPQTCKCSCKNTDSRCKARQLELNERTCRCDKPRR

[2] = tested on: HCT116 human tumor; test: Antitumor activity and toxicity in mice grafted subcutaneously with HCT116 human tumor fragments; assay type: in vivo
Experimental: (§1) This effectiveness can be quantified, for example, by the log10 cell kill, which is determined according to the following equation:
(§2) log10 cell kill=T-C (days)/3.34×Td
(§3) in which T-C represents the delay in growth of the cells, which is the average time, in days, for the tumors of the treated group (T) and the tumors of the control group (C) to have reached a predetermined value (1 g for example), and Td represents the time, in days, necessary for the volume of the tumor to double in the control animals [T. H. Corbett et al., Cancer, 40, 2660.2680 (1977); F. M. Schabel et al., Cancer Drug Development, Part B, Methods in Cancer Research, 17, 3-51, New York, Academic Press Inc. (1979)]. A product is considered to be active if log10 cell kill is greater than or equal to 0.7. A product is considered to be very active if log10 cell kill is greater than 2.8.
(§4) The combination, used at its own maximum tolerated dose, in which each of the constituents is present at a dose generally less than or equal to its maximum tolerated dose, will show therapeutic synergy when the log10 cell kill is greater than the value of the log10 cell kill of the best constituent when it is administered alone, and in particular has a superiority of at least one log cell kill.
(§5) The effectiveness of the combinations on solid tumors can be determined experimentally in the following way:
(§6) The animals subjected to the experiment, generally mice, are grafted bilaterally, subcutaneously, with 30 to 60 mg of an HCT116 human tumor fragment (Brattain, M. G., Fine, W. D., Khaled, F. M., Thompson, J. and Brattain, D. E., Heterogeneity of malignant cells from a human colonic carcinoma. Cancer Res., 1981, 41, 1751-1756) on day 0. The animals bearing the tumors are randomized before being subjected to the various treatments and controls. In the case of treatment of tumors of the present invention, the tumors were allowed to develop to a size of between 48 and 294 mg, which made it possible to have a median tumor per group of between 129 and 162 mg. […] Animals bearing tumors were also subjected to the same treatments with the excipient alone in order to be able to dissociate the toxic effect of the excipient from the actual effect of the chemotherapy on the tumor. The chemotherapy was begun on day 12 after the tumor graft. The VEGF Trap injections were given subcutaneously simultaneously with the irinotecan injections, which themselves were given intravenously, according to a daily double injection. These injections were carried out on days 12, 15 and 18 after implantation of the tumor. The various groups of animals are weighed three to four times per week until the maximum weight loss is reached, and then the groups are weighed at least once a week until the end of the trial.
(§7) The tumors are measured two or three times a week until the tumor reaches approximately 2 g or until the death of the animal if the latter occurs before the tumor reaches 2 g. The animals are autopsied at the time of sacrifice.
(§8) The antitumor activity is determined according to the various parameters recorded.
(§9) Vials of 1 cm^3 containing 25 mg of VEGF Trap which are diluted in a buffer of 5 mM phosphate, 5 mM sodium citrate, 100 mM sodium chloride, polysorbate 20 and 20% sucrose are prepared according to the usual technique, for subcutaneous administration. The administration volume per mouse is 0.1 ml. The VEGF Trap is administered once a day, on days 12, 15 and 18 after implantation of the tumor.
(§10) 0.3 ml per mouse is prepared, according to the usual technique, for intravenous administration, from a commercially available solution at 20 mg/ml of irinotecan to be diluted with 5% dextrose in water.
(§11) These solutions are administered simultaneously, after a suitable dilution.
(§12) The treatment with irinotecan is repeated twice a day, with a 4-hour interval, on days 12, 15 and 18 after implantation of the tumor.
(§13) Tumor doubling time=3.2 days.
(§14) Abbreviations used: (T-C) delay in growth of the tumor, Ick=log cell kill.

[3] = biological target: VEGF-B (Homo sapiens, UniProt P49765); details: cited from earlier work
[4] = biological target: PIGF (placental growth factor) (Homo sapiens, UniProt P49763); details: cited from earlier work
[5] = Antitumor activity and toxicity in mice grafted subcutaneously with HCT116 human tumor fragments; assay type: in vivo; details: mouse, in vivo, iv; irinotecan alone, i.v. twice a day on days 12, 15, 18; read-out: maximum tolerated dose, total injected dose
Experimental: as §1, §2, §3, §4, §5, §6, §7, §8, §9, §10, §11, §12, §13, §14

[6] = VEGF Trap alone, 2.5 mg/kg s.c. days 12, 15, 18, total 7.5 mg/kg, group 5
[7] = VEGF Trap alone, 10.0 mg/kg s.c. days 12, 15, 18, total 30.0 mg/kg, group 4
[8] = VEGF Trap alone, 25.0 mg/kg s.c. days 12, 15, 18, total 75.0 mg/kg, group 3
[9] = VEGF Trap alone, 40.0 mg/kg s.c. days 12, 15, 18, total 120.0 mg/kg, group 2
[10] = CPT-11 alone, 12.5 mg/kg per injection i.v., 2x/d days 12, 15, 18, total 75.0 mg/kg, group 9
[11] = CPT-11 alone, 20.2 mg/kg per injection i.v., 2x/d days 12, 15, 18, total 121.2 mg/kg, group 8
[12] = CPT-11 alone, 32.5 mg/kg per injection i.v., 2x/d days 12, 15, 18, total 195.0 mg/kg, group 7

Sequence of PIGF (placental growth factor) (P49763 19-221): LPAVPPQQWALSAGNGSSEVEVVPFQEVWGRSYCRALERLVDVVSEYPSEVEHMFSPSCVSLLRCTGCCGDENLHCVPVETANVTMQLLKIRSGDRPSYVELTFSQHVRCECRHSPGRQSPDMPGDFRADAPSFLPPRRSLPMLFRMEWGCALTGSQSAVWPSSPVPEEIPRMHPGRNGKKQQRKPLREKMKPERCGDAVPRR
Sequence of VEGF-B (P49765 22-207, species assumed): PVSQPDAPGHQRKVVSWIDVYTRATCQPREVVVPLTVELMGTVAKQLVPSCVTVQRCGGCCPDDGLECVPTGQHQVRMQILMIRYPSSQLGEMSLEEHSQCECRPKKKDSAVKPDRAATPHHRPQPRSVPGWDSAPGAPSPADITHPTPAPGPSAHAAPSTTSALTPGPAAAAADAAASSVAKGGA

In the case of “VEGF Trap: fusion protein: D2 Ig domain of VEGFR1 fused to D3 Ig domain of VEGFR2, fused to the Fc domain of IgG1”, the “affinity for VEGF-A compared with Avastin” value [1] is given as “much higher affinity”, the “Average time for the tumor to reach 750 mg” value (“Average time for the tumor” below) [2, 6] is given as 20.2 days and the “Comments (activity)” value [2, 6] is given as “inactive”. For the same molecule, the “Death due to the product, with day of death” value (“Death due to the product” below) [2, 6] was 0/8, the Log cell kill [2, 6] was 0.2 and the “Survivors without tumor at day 144” value [2, 6] was 0/8. For the same molecule, the T-C [2, 6] was 1.7 days, the “Weight loss of the mouse (date of low-point)” value (from here on “Weight loss of the mouse”) ([2]; VEGF Trap alone, 2.5 mg/kg s.c. days 12, 15, 18, total 7.5 mg/kg, group 5, low-point day 19) was −8.3 (19) % and the “Average time for the tumor” value [2, 7] was 32.0 days. For the same molecule, the “Comments (activity)” value [2, 7] was “active”, the “Death due to the product” value [2, 7] was 0/8 and the Log cell kill [2, 7] was 1.3. For the same molecule, the “Survivors without tumor at day 144” value [2, 7] was 1/8, the T-C [2, 7] was 13.5 days and the “Weight loss of the mouse” value ([2]; VEGF Trap alone, 10.0 mg/kg s.c. days 12, 15, 18, total 30.0 mg/kg, group 4, low-point day 19) was −5.0 (19) %. For the same molecule, the “Average time for the tumor” value [2, 8] was 36.8 days, the “Comments (activity)” value [2, 8] was “active” and the “Death due to the product” value [2, 8] was 0/8. For the same molecule, the Log cell kill [2, 8] was 1.7, the “Survivors without tumor at day 144” value [2, 8] was 0/8 and the T-C [2, 8] was 18.3 days. The “Weight loss of the mouse” value ([2]; VEGF Trap alone, 25.0 mg/kg s.c. days 12, 15, 18, total 75.0 mg/kg, group 3, low-point day 13) was −2.2 (13) %, the “Average time for the tumor” value [2, 9] was 36.8 days and the “Death due to the product” value [2, 9] was 0/8. The Log cell kill [2, 9] was 1.7, the “Survivors without tumor at day 144” value [2, 9] was 0/8 and the T-C [2, 9] was 18.3 days. For the same molecule, the “Comments (activity)” value ([2]; VEGF Trap alone, 40.0 mg/kg s.c. days 12, 15, 18, total 120.0 mg/kg, group 2 (HDT)) was “active”, the “Weight loss of the mouse” value ([2]; VEGF Trap alone, 40.0 mg/kg s.c. days 12, 15, 18, total 120.0 mg/kg, group 2, low-point day 13) was −3.1 (13) % and the tolerability ([2]; VEGF Trap alone, all the dosages tested (2.5 to 40 mg/kg/administration s.c.)) was “well-tolerated”. For the same molecule, the “binding to VEGF-B (selectivity profile)” value [3] was “also binds” and the “binding to PIGF (selectivity profile)” value [4] was “also binds”.
In the case of `CCc1c2c(nc3ccc(OC(=O)N4CCC(N5CCCCC5)CC4)cc13)-c1cc3c(c(=O)n1C2)COC(=O)[C@]3(O)CC` [CPT-11, irinotecan], the MTD [5] is reported as 75 mg/kg, the “Average time for the tumor” value [2, 10] is reported as 37.6 days and the “Comments (activity)” value [2, 10] is reported as “active”. The “Comments (dose level)” value [2, 10] was “HNTD”, the “Death due to the product” value [2, 10] was 0/8 and the Log cell kill [2, 10] was 1.8. For the same molecule, the “Survivors without tumor at day 144” value [2, 10] was 0/8, the T-C [2, 10] was 19.1 days and the “Weight loss of the mouse” value ([2]; CPT-11 alone, 12.5 mg/kg per injection i.v., 2x/d days 12, 15, 18, total 75.0 mg/kg, group 9, low-point day 21) was −15.9%. The Comments [2, 11] was “Toxic”, the “Death due to the product” value [2, 11] was 0/8 and the Comments ([2]; CPT-11 alone, 20.2 mg/kg per injection i.v., 2x/d days 12, 15, 18, total 121.2 mg/kg, group 8, listed as irinotecan) was “Toxicity was observed”. The “Weight loss of the mouse” value ([2]; CPT-11 alone, 20.2 mg/kg per injection i.v., 2x/d days 12, 15, 18, total 121.2 mg/kg, group 8, low-point day 19) was −21.9%, the “Weight loss of the mouse” value ([2]; CPT-11 alone, 20.2 mg/kg per injection i.v., 2x/d days 12, 15, 18, total 121.2 mg/kg, group 8, low-point day 19, listed as irinotecan) was “greater than 20%” and the Comments [2, 12] was “Toxic”. For the same molecule, the “Death due to the product” value [2, 12] was 0/7, the Comments ([2]; CPT-11 alone, 32.5 mg/kg per injection i.v., 2x/d days 12, 15, 18, total 195.0 mg/kg, group 7, listed as irinotecan) was “Toxicity was observed” and the “Weight loss of the mouse” value ([2]; CPT-11 alone, 32.5 mg/kg per injection i.v., 2x/d days 12, 15, 18, total 195.0 mg/kg, group 7, low-point day 19) was −23.1%. For the same molecule, the “Weight loss of the mouse” value ([2]; CPT-11 alone, 32.5 mg/kg per injection i.v., 2x/d days 12, 15, 18, total 195.0 mg/kg, group 7, low-point day 19, listed as irinotecan) was “greater than 20%”, the “Death due to the product” value ([2]; CPT-11 alone, 52.4 mg/kg per injection i.v., 2x/d (4 h apart) days 12, 15, 18, total 314.4 mg/kg, group 6, day of death 23) was 1/8 (23) and the “Death due to the product” value ([2]; CPT-11 alone, 52.4 mg/kg per injection i.v., 2x/d (4 h apart) days 12, 15, 18, total 314.4 mg/kg, group 6, day of death 23, listed as irinotecan) was “a death”. For the same molecule, the Comments ([2]; CPT-11 alone, 52.4 mg/kg per injection i.v., 2x/d days 12, 15, 18, total 314.4 mg/kg, group 6) was “Toxic”, the Comments ([2]; CPT-11 alone, 52.4 mg/kg per injection i.v., 2x/d days 12, 15, 18, total 314.4 mg/kg, group 6, listed as irinotecan) was “Toxicity was observed” and the “Weight loss of the mouse” value ([2]; CPT-11 alone, 52.4 mg/kg per injection i.v., 2x/d days 12, 15, 18, total 314.4 mg/kg, group 6, low-point day 21) was −27.0%. The maximum tolerated dose ([2]; irinotecan alone, i.v. twice a day on days 12, 15, 18) was 12.5 mg/kg/inj.
